According to patent US20140057976A1, “USNIC ACID TOPICAL FORMULATION” (EVOCUTIS PLC, priority 2011, published 2014):
Marks after values point to notes of the source that are not given here.

Columns and labels:
[1] = tested on: Propionibacterium acnes NCTC 737; assay: Minimum inhibitory concentration (MIC) assay; assay type: cell-based; conditions: P. acnes NCTC 737
Protocol: (§1) The test organism used was Propionibacterium acnes NCTC 737. This is a propionibacterial strain and is the type strain of the […]; it is fully susceptible to antibiotics. The propionibacteria are clinically significant due to their involvement in acne. They are also opportunistic pathogens in compromised hosts. Activity observed against these micro-organisms is expected to be a good predictor of activity against acne.
(§2) The propionibacteria were cultured and maintained on Wilkins-Chalgren Anaerobe Medium (agar and broth) at pH 6.0; all cultures were incubated anaerobically at 37° C. for 72 hours.
This is a standard international method for quantitatively assessing the antimicrobial activity of a compound/formulation in a liquid medium. The method used a sterile 96-well microtitre plate, capable of holding about 200 μl of liquid per well. The wells contained liquid culture medium and ranges of decreasing concentrations of the relevant test compound/formulation (in this case reported as the relative concentration of the active molecule—copper usnate—in the formulations) in doubling dilutions (eg 1000, 500, 250, 125 . . . μg/ml, etc, down to 0.49 μg/ml). The culture media were as described above.
The wells were inoculated with a liquid suspension of freshly grown micro-organism and incubated under the conditions described above. After incubation, the microtitre plate was examined visually for cloudiness in each well, which would indicate microbial growth. The MIC value was recorded as the lowest concentration of test compound/formulation required to inhibit microbial growth, ie the lowest concentration for which the liquid in the well remained clear.
The assays included both negative (culture medium with no micro-organisms) and positive (culture medium plus diluting solvent plus micro-organism) controls.

[2] = tested on: Propionibacterium acnes NCTC 737; assay: Minimum biocidal concentration (MBC) assay; assay type: cell-based; conditions: P. acnes NCTC 737
Protocol: as §1, §2
This assay, normally carried out after an MIC assay, determines the minimum concentration of a compound or formulation that is lethal to the test micro-organism.
These samples were then individually sub-cultured on antibiotic-free agar medium, under the incubation conditions described above. Following incubation they were examined visually for microbial growth.
The ratio of MIC to MBC should ideally be as close to 1 as possible. This facilitates selection of the lowest possible effective concentration of a test compound or formulation, with a reduced risk of selecting a sub-lethal concentration which could promote resistance or allow the target microbial population to recover.

S. aureus ATCC 29213 [3] = assay: MIC against S. aureus; assay type: cell-based
S. aureus ATCC 29213 [4] = assay: MBC against S. aureus; assay type: cell-based
[5] = tested on: Corynebacterium striatum NCTC 764; assay: MIC against Corynebacterium striatum; assay type: cell-based
[6] = tested on: Corynebacterium striatum NCTC 764; assay: MBC against Corynebacterium striatum; assay type: cell-based
P. acnes NCTC 737 = assay: Synthetic sebum time-to-kill assay; assay type: cell-based, Propionibacterium acnes; conditions: 49 μg/mL Cu usnate (equivalent)
Protocol: This quantitative assay was designed to assess the level of kill of a P. acnes culture in a synthetic sebum (non-aqueous environment) over a defined time period, in this case 4 hours. A culture of P. acnes NCTC 737 was inoculated into a synthetic sebum (a liquid mixture of lipid components designed to simulate human sebum) containing the relevant test compound or formulation diluted in 1-octanol. From this culture, samples were taken after 4 hours, 10-fold serially diluted in wash fluid (0.075 M sodium phosphate buffer, pH 7.9, 0.1% v/v Triton™-X 100) and inoculated onto agar plates (in triplicate). The plates were then incubated as described above and subsequently examined visually for growth. The numbers of viable microbial colonies on the plates were counted with the aid of a colony counter and converted to colony-forming units per ml (cfu/ml) using the appropriate dilution factor. Cell counts conducted in the absence of formulations (but still in the presence of 1-octanol) acted as positive controls. All experiments were conducted in triplicate.

MIC:MBC ratio ([1]; Example 13): 0.25
MIC ([1]; Example 13, formulations as Cu usnate equivalent, anaerobic 37° C. 72 hours): 0.24 µg/mL
minimum inhibitory concentration (MIC) ([1]; found by the present inventors): 0.49 µg/mL
MIC (S. aureus ATCC 29213 [3]): 7.8 µg/mL
MIC [5]: 3.9 µg/mL
SMILES: CC(=O)c1c([O-])c(C)c([O-])c2c1OC1=CC(=O)C(C(C)=O)C(=O)C12C.[Cu+2] (stereo not drawn) [Copper usnate, copper (II) di-usnate]
MBC ([2]; Example 13, formulations as Cu usnate equivalent): 0.98 µg/mL
minimum biocidal concentration (MBC) ([2]; found by the present inventors): 3.9 µg/mL
MBC (S. aureus ATCC 29213 [4]): 62.5 µg/mL
MBC [6]: 62.5 µg/mL
Log10 cfu/ml (T0 hours) (P. acnes NCTC 737; T0 hours): 7.97 Log10 cfu/ml
Log10 change (P. acnes NCTC 737; T0 to T4 hours): −4.97 Log10
Log10 cfu/ml (T4 hours) (P. acnes NCTC 737; T4 hours, lowest detectable level = 3.0 Log10 cfu/ml): ≤ 3.0* Log10 cfu/ml
